Where two headings read alike, the source gives them in different places.
Experiments:
Type in all cases: cell-based
[1] = system: Neonatal foreskin primary human epidermal melanocytes (HEMn-MP); assay: Melanin quantitation analysis in HEMn-MP cells; conditions: for Cell melanin content (in words): FIG. 2C; for Percentage of cellular melanin concentration (%): control = 100%
Experimental: Lin's method was used to quantify melanin (Lin et al., Constituents from the Formosan apple reduce tyrosinase activity in human epidermal melanocytes 2007 Phytochemistry Volume 68, Issue 8, Pages 1189-1199). Cells were resuspend in 1N NaOH and dimethyl sulfoxide (DSMO), heated at 80° C. for 1 hour, centrifuged for 10 min at 10,000 rpm, and measured OD 405 nm value of supernatant. As shown in Table 3 and FIG. 2C, the control group value was set as 100%. All results obtained from 3 independent experiments.

tyrosinase = biological target: T1, tyrosinase (Homo sapiens, UniProt P14679); assay: Tyrosinase activity assay (dopachrome biosynthesis rate, lysate of treated HEMn-MP cells); conditions: for Tyrosinase activity (in words): FIG. 2B; for Tyrosinase activity percentage (%): 3 days, control = 100%
T1 construct: endogenous in cells; host or cells: HEMn-MP human epidermal melanocytes (lysate in 1% Triton X-100/PBS)
T1 sequence (P14679 19-529): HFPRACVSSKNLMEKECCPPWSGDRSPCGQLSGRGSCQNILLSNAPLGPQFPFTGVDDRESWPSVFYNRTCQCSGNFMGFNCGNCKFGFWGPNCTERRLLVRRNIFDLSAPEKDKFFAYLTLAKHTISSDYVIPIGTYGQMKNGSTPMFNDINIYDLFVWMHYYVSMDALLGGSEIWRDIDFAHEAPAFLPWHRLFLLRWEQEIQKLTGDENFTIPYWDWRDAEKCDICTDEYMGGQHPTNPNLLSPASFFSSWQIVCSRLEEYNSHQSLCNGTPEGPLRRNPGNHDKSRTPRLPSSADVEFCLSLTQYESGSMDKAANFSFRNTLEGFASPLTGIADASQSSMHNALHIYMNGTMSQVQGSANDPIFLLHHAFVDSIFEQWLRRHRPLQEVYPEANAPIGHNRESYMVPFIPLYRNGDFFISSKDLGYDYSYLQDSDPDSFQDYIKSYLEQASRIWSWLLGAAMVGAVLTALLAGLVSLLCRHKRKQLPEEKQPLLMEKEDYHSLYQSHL
Experimental: Cultured cells were rinsed with […] resuspend in 1% Triton X-100/PBS. Cell lysate was harvested. L-Dopa and L-tyrosine 10 μl (10 mM in 0.1M PBS, pH 6.8) were added and incubated at 37° C. for 3 hours. After reaction, the OD 490 nm value was measured.

[2] = system: Neonatal foreskin primary human epidermal melanocytes (HEMn-MP); assay: Toxicity assay (MTS) in human melanocytes
Experimental: Neonatal foreskin primary human epidermal melanocytes (HEMn-MP) was purchased from Cascade Biologics™, and cultured in 254 medium (Cascade Biologics™) with human melanocyte growth supplement (HMGS, cat. #S-002-5). Cells were maintained at 37° C. humid environment (5% CO2). Neonatal foreskin primary human epidermal melanocytes (HEMn-MP) were cultured in 24-Well plates at seeding density of 10^5 cells/well.
MTS assay (Mosmann T, Rapid colorimetric assay for cellular growth and survival: application to proliferation and cytotoxicity assays J Immunol Methods 1983 16; 65(1-2):55-63) was used for cell toxicity assay. […] The stimulation of MSH to melanin synthesis was used as a reference for comparison of compound (I) and (II). Control group value was set as 100% which obtained from 3 independent experiments.

[3] = system: Neonatal foreskin primary human epidermal melanocytes (HEMn-MP); assay: Microscopic appearance of HEMn-MP cells (FIG. 3); conditions: high concentrations; 200× bright field; FIGS. 3E and 3J
Source text: Microscopic images were taken under 200× magnification bright field view. The arrow head indicates bipolar appearance of neonatal foreskin primary human epidermal melanocyte (HEMn-MP).
Under 200× bright field microscope, the control group and low concentration compound (I) and (II) treated cells (FIGS. 3A, 3H, 3I, 3M and 3N) were lined up tightly showing bipolar appearance.

[4] = reference, concentration 100 μM

| Tyrosinase activity percentage (%) (tyrosinase; 0.01 μM) | Tyrosinase activity percentage (%) (tyrosinase; 0.1 μM (MSH concentration)) | Tyrosinase activity percentage (%) (tyrosinase; 1 μM) | Tyrosinase activity percentage (%) (tyrosinase; 5 μM) | Tyrosinase activity percentage (%) (tyrosinase; 10 μM) | Compound | Cell melanin content (in words) [1] | Percentage of cellular melanin concentration (%) [1, 4] [%] | Tyrosinase activity (in words) (tyrosinase) | Cell activity (in words) [2] | Percentage of cellular melanin concentration (%) ([1]; 0.01 μM) | Percentage of cellular melanin concentration (%) ([1]; 0.1 μM (MSH concentration)) | Percentage of cellular melanin concentration (%) ([1]; 1 μM) | Percentage of cellular melanin concentration (%) ([1]; 5 μM) | Percentage of cellular melanin concentration (%) ([1]; 10 μM) | Cell appearance under microscope [3] | Cell activity percentage (%) ([2]; human, 0.01 μM) | Cell activity percentage (%) ([2]; human, 0.1 μM) | Cell activity percentage (%) ([2]; human, 1 μM) | Cell activity percentage (%) ([2]; human, 5 μM) | Cell activity percentage (%) ([2]; human, 10 μM) | further results |
| --- | --- | --- | --- | --- | --- | --- | --- | --- | --- | --- | --- | --- | --- | --- | --- | --- | --- | --- | --- | --- | --- |
|  |  |  |  |  | NC(=S)Nc1ccccc1 [N-phenylthiourea, reference compound] | reduced melanin content | 77.56 | less effective to tyrosinase activity |  |  |  |  |  |  |  |  |  |  |  |  | Tyrosinase activity percentage (%) (tyrosinase; [4]): 71.07%; Cell activity percentage (%) ([2]; 100 μM, MTS, control = 100%): 79.07%; Cell activity (in words) ([2]; FIG. 2A): less effects on cell activity |
|  |  |  |  |  | O=c1cc(CO)occ1O [Kojic acid, reference compound] | reduced melanin content | 66.34 |  | less effects on cell activity |  |  |  |  |  |  |  |  |  |  |  | Cell activity percentage (%) ([2]; human, 100 μM): 72.87% |
| 78.62 | 74.21 | 44.03 | 7.369 | 7.275 | CCCCCCCCCCCCC/C=C1\C(=O)O[C@@](C)(OC)[C@@H]1O [Subamolide A, subamolide A] | cell melanin content decreased |  | reduced along with elevated concentrations | reduced along with higher concentrations | 84.11 | 76.85 | 66.1 | 25.12 | 20.2439 | partial toxicity to cells | 93.41 | 85.66 | 73.91 | 54.69 | 44.91 |  |
| 84.15 | 72.96 | 45.91 | 18.04 | 14.59 | C=C1OC(=O)/C(=C\CCCCCCCCCCCCC)[C@H]1O [Linderanolide B, linderanolide B] | cell melanin content decreased |  | reduced along with elevated concentrations | reduced along with higher concentrations | 89.63 | 78.63 | 67.56 | 28.93 | 24.39 | partial toxicity to cells | 94.19 | 87.52 | 83 | 62.41 | 54.26 |  |

Source: patent publication US8455023B2, “Composition for inhibiting melanogenesis and use thereof” (Kaohsiung Medical University, priority 2010, dated 2013)
